# Assay results reported in patent US6133273A, “Pyrazolopyrimidine-2,4-dione sulfonamides” (American Home Products Corporation, priority 1999, dated 2000).
# Legend:
# [1] = tested on: C1-3 cell line (calcitonin secretion); experiment: Calcitonin Secretion/RIA Assay; type: cell-based, human; details: active if >2.5; for fold induction at 30 µM: Homo sapiens, C13, ratio of calcitonin secretion vs untreated control
# Procedure: Cell Line: C1-3 (Parent Cell Line: TT-medullary thyroid carcinoma),
# Reagent A--(Anti-Calcitonin)
# Regent C--(Anti-Goat Precipitant)
# Regent D--(Zero Standard).
# Reagents E-I--(Calcitonin Standards)
# Reagents J-K (Calcitonin Controls: Level and Level 2)
# 1. Glass tubes were labeled to include Total Count (TC), Nonspecific Binding (NSB), Maximum Binding (Bo), Standards, Controls and Patient Sera in duplicate.
# 2. […] of Standard Zero (Reagent D) was added to tubes 3 through 6 (NSB and Bo).
# 3. […] of Standards* (Reagents E-1) was added to tubes 7-16 as follows:
# 4. […] of Patient Serum 1 was added to tubes 21 and 22, Patient Serum 2 was added to tubes 23 and 24, etc.
# 5. […] of Reagent L (NSB Buffer) was added to tubes 3 and 4.
# 6. […] of Reagent A (Anti-Calcitonin) was added to all tubes except tubes 1 & 2 (TC) and tube 3 & 4 (NSB). All tubes were vortexed, covered with parafilm or foil and incubated 44±6 hours at 2-8° C.
# 7. […] All tubes were vortexed, covered with parafilm or foil and incubated 22±3 hours at 2-8° C.
# 8. Reagent C (Anti-Goat Precipitant) was mixed gently but thoroughly by inverting the vial several times before use. 1 mL Reagent C was added to all tubes except 1 and 2 (TC). Tubes were vortexed and incubated 20 minutes at room temperature.
# 9. All tubes were centrifuged at 1300-1500×g for 15 minutes at 2-8° C.
# 10. Supernatant was decanted immediately after centrifugation taking care to leave the precipitate intact.
# 11. Tubes were counted 4 minutes or longer.
# Secretion Ratio: Stimulation of calcitonin secretion is expressed as a ratio of secretion activity in the presence of test compound compared to the secretion activity in the untreated control: [formula]
# [2] = tested on: promoter region of the human calcitonin gene (luciferase reporter, C1-3 cells); experiment: Calcitonin/Luciferase Reporter Gene Expression Assay; details: for fold induction at 30 µM: read-out: TAR (transcription activation ratio)
# Procedure: This assay was used to determine the ability of a compound to stimulate transcription of a luciferase reporter gene regulated by 3 kb of the promoter region of the human calcitonin gene.
# C1-3 cells were plated at a density of 6,500-7,500 cells per well in a 96-plate microtiter plate. Twenty-four to forty-eight hours later, compounds were added to the wells in triplicate. Compounds were tested at a concentration of 10 μg/mL in 0.5% DMSO.
# The production of light is measured on a luminometer.
# TAR Ratio: Stimulation of calcitonin promoter-dependent transcription is expressed as a ratio of luciferase activity (LUCI) in the presence of test compound compared to the LUCI activity in the untreated control: [formula]
# PDE-IV = experiment: Inhibition of Phosphodiesterase IV (PDE-IV) isolated from human U937 cells; type: biochemical; details: U937 cell PDE-IV, 1 μM [3H]-cAMP, 37° C., test compound 0.001 μM to 10 μM
# Procedure: This assay was used to biochemically assess the ability of a test compound to inhibit PDE-IV isolated from a U937 cell line, where PDE-IV refers to the cGMP-insensitive, cAMP-selective PDE.
# Cell Culture: U937 cells were grown in RPMI 1640 medium supplemented with 10% heat-inactivated fetal calf serum and Penicillin/Streptomycin (100 units/100 μg per mL) in a humidified 5% CO2 atmosphere at 37° C. Starter cells were maintained in continuous logarithmic growth by seeding them in 75 cm^2 vented tissue culture flasks at a concentration of 3×10^4 cells/mL and passing them every 3-4 days when the cells reached approximately 8×10^5 cells/mL. For experiments, 3-4 day starter cells were seeded in 225 cm^2 flasks at 1×10^5 cells/mL and harvested 3-4 days later at approx. 6×10^5 cells/mL.
# Isolation of PDE-IV: U937 cells were activated with 10 μM dibutyryl cAMP for a period of 4 hours (to up-regulate PDE-IV) and then harvested by centrifugation at 1200×g for 10 min in 250 mL conical centrifuge tubes. The pellet from each 200 mL flask was resuspended in 5 mL buffer A [10 mM Tris-HCl, 5 mM MgCl2, 4 mM EGTA, 5 mM 2-mercaptoethanol, 1 μM leupeptin, 1 μM pepstatin A, and 5 μM phenylmethyl sulfonyl fluoride (PMSF) (pH 7.8)], and the cells were lysed using 3 cycles of freezing (3 min in dry ice/acetone) followed by thawing (warm water). […] To determine which families of PDEs were present, fractions may be assayed for hydrolytic activity with 1 μM [^3 H]-cAMP or 1 μM [^3 H]-cGMP. Additionally, 1 μM [^3 H]-cAMP assays were conducted in the presence of 10 μM rolipram, 10 μM cGMP, or calmodulin (1 unit/0.4 mL plus 10 μM CaCl2).
# When prepared in this manner, approximately 80% of total cAMP PDE activity is eluted by Buffer B containing 0.7 M sodium acetate. This PDE activity consists of>90% PDE-IV (as evidenced by its susceptibility to inhibition by rolipram.
# PDE assay: PDE activity was measured using a modification of the radioisotope procedure previously described by Thompson et al. (Thompson, W. J., Terasaki, W. L., Epstein, P. M. and Strada, S. J. Adv, Cyclic Nucleotide Res. 1979, 10, 69). Reaction mixtures (0.4 mL) contain 40 mM Tris-HCl (pH 7.8), 4 mM 2-mercaptoethanol, 5 mM MgCl2, 0.1 μM leupeptin, 0.1 μM pepstatin A, 0.1 μM PMSF, 1 μM [3H]-cAMP or 1 μM [^3 H]-cGMP (~200,000 DPM), and enzyme to initiate the reaction. ^3 H-cAMP substrate was prepared as follows: A stock solution of ^3 H-cyclic nucleotide (1000 μCi/mL) was diluted 1:10 in 50% EtOH. 200 μl of this diluted stock solution was added to a cold (unlabeled) cyclic nucleotide solution, made at a concentration of 4 μM. 100 μl of this solution was used per assay tube to achieve a final concentration of 1 μM cyclic nucleotide per assay tube (200,000 DPM). Enzyme activity was determined at 37° C. Reactions were terminated by boiling, incubating with snake venom, and cooling as previously described (Thompson et al., 1979). The reaction mixture was applied to a (0.8×8.5 cm) column containing 0.4 g Dowex I-X8 affinity resin; reaction tubes were rinsed with 0.5 mL of methanol; and this, along with an extra 1 mL of methanol, was applied to the column to elute the ^3 H-reaction products. After all liquid has passed through the column, the column was plunged with a 12 cc syringe plunger. Each column's eluate was collected in a 20 mL scintillation vial containing 10 mL aquasol-2 and counted by scintillation spectrophotometry. [^3 H]-adenosine or [^3 H]-guanosine recovery was corrected for background DPM determined in the absence of enzyme. The amount of enzyme and duration of assay were adjusted to ensure that less than 25% of the substrate was consumed under these conditions.
# Measurements: Inhibition by a test compound was measured as a percent reduction of total PDE activity, and calculated as follows: [formula] where A is the PDE activity (mean DPM-background DPM) in the presence of test compound, and B is the total PDE-IV activity (mean DPM-background DPM) in the absence of test compound. […]
Compound,fold induction at 30 µM [1],"fold induction at 30 µM ([2]; Homo sapiens, C13, 12 h)",% Inhibition of PDE IV (normalized to rolipram) (PDE-IV) [%],"fold induction at 1000 µM ([2]; Homo sapiens, C13, 12 h, read-out: fold induction of luciferase (control stimulation))","Secretion Ratio ([1]; 30 μM, ratio of calcitonin secretion vs untreated control)","TAR (transcription activation ratio) ([2]; 30 μM, ratio of luciferase activity vs untreated control, active if TAR>1.5)"
"CCCCn1c(=O)c2nn(S(=O)(=O)CCCCl)cc2n(CCCC)c1=O [Example 1, 4,6-Dibutyl-3-chloropropanesulfonyl-2,4-dihydro-pyrazolo[4,3-d]pyrimidine-5,7-dione]",4.35,1.34,–,–,–,–
"CCCCn1c(=O)c2cn(S(C)(=O)=O)nc2n(CCCC)c1=O [Example 17, 5,7-Dibutyl-2-methanesulfonyl-2,7-dihydro-pyrazolo[3,4-d]pyrimidine-4,6-dione]",3.93,1.95,17,–,–,–
"CCCCn1c(=O)c2cn(S(=O)(=O)c3cc(Cl)c(Cl)s3)nc2n(CCCC)c1=O [Example 15, 5,7-Dibutyl-2-(4,5-dichloro-thiophene-2-sulfonyl)-2,7-dihydro-pyrazolo[3,4-d]pyrimidine-4,6-dione]",3.67,2.93,59,–,–,–
"CCCCn1c(=O)c2nn(S(=O)(=O)c3c(Cl)cc(Cl)cc3Cl)cc2n(CCCC)c1=O [Example 11, 4,6-Dibutyl-2-(2,4,6-trichloro-benzenesulfonyl)-2,4-dihydro-pyrazolo[4,3-d]pyrimidine-5,7-dione]",4.31,1.76,26,–,–,–
"Nc1ncnc2c1nc(Sc1ccc(Cl)cc1)n2[C@@H]1O[C@@H]2COP(=O)(O)O[C@H]2[C@H]1O [Example 8-CPT-cAMP, 8-CPT-cAMP, reference compound]",–,–,–,2 to 3,–,–
"4,6-Dibutyl-1-(propane-1-sulfonyl)-1,4-dihydro-pyrazolo[4,3-d]pyrimidine-5,7-dione [Example 9]",–,–,27,–,2.71,1.47
"CCCCn1c(=O)n(C)c(=O)c2nn(S(=O)(=O)CCCCl)cc21 [Example 18, 4-Butyl-2-(3-chloro-propane-1-sulfonyl)-6-methyl-2,4-dihydro-pyrazolo[4,3-d]pyrimidine-5,7-dione]",1.38,1.1,34,–,–,–
"Cn1c(=O)c2cn(S(=O)(=O)CCCCl)nc2n(C)c1=O [Example 21, 2-(3-Chloro-propane-1-sulfonyl)-5,7-dimethyl-2,7-dihydro-pyrazolo[3,4-d]pyrimidine-4,6-dione]",1.02,1.2,68,–,–,–
"O=c1c2cn(S(=O)(=O)CCCCl)nc2n(CC2CC2)c(=O)n1CC1CC1 [Example 22, 2-(3-Chloro-propane-1-sulfonyl)-5,7-bis-cyclopropylmethyl-2,7-dihydro-pyrazolo[3,4-d]pyrimidine-4,6-dione]",2.93,1.6,30,–,–,–
"CCCCn1c(=O)c2nn(S(=O)(=O)c3cccc(C(F)(F)F)c3)cc2n(CCCC)c1=O [Example 3, 4,6-Dibutyl-2-(3-trifluoromethyl-benzenesulfonyl)-2,4-dihydro-pyrazolo[4,3-d]pyrimidine-5,7-dione]",3.79,1.79,68,–,–,–
"CCCCn1c(=O)c2nn(S(=O)(=O)CCCCl)cc2n(CCC(C)C)c1=O [Example 20, 6-Butyl-2-(3-chloro-propane-1-sulfonyl)-4-(3-methyl-butyl)-2,4-dihydro-pyrazolo[4,3-d]pyrimidine-5,7-dione]",2.25,1.57,42,–,–,–
"CCCCn1c(=O)c2cn(S(=O)(=O)c3ccc(C(F)(F)F)cc3)nc2n(CCCC)c1=O [Example 16, 5,7-Dibutyl-2-(4-trifluoromethyl-benzenesulfonyl)-2,7-dihydro-pyrazolo[3,4-d]pyrimidine-4,6-dione]",3.86,2.61,62,–,–,–
"CCCCn1c(=O)c2nn(S(=O)(=O)c3cccc4cccnc34)cc2n(CCCC)c1=O [Example 12, 4,6-Dibutyl-2-(quinoline-8-sulfonyl)-2,4-dihydro-pyrazolo[4,3-d]pyrimidine-5,7-dione]",3.83,2.22,41,–,–,–
"CCCCn1c(=O)c2cn(S(=O)(=O)Cc3ccccc3)nc2n(CCCC)c1=O [Example 19, 5,7-Dibutyl-2-phenylmethanesulfonyl-1,7-dihydro-pyrazolo[3,4-d]pyrimidine-4,6-dione]",3.43,1.97,48,–,–,–
"CCCCn1c(=O)c2nn(S(=O)(=O)Cc3ccccc3)cc2n(CCCC)c1=O [Example 2, 4,6-Dibutyl-2-phenylmethanesulfonyl-2,4-dihydro-pyrazolo[4,3-d]pyrimidine-5,7-dione]",2.55,1.51,35,–,–,–
"CCCCn1c(=O)c2cn(S(=O)(=O)c3ccc(OC(F)(F)F)cc3)nc2n(CCCC)c1=O [Example 14, 5,7-Dibutyl-2-(4-trifluoromethoxy-benzenesulfonyl)-2,7-dihydro-pyrazolo[3,4-d]pyrimidine-4,6-dione]",4.29,2.22,92,–,–,–
"CCCCn1c(=O)c2cn(S(=O)(=O)CCCCl)nc2n(CCCC)c1=O [Example 13, 5,7-Dibutyl-2-(3-chloro-propane-1-sulfonyl)-2,7-dihydro-pyrazolo[3,4-d]pyrimidine-4,6-dione]",2.71,1.91,34,–,–,–
